# Like-named read-outs stand apart in the source and are kept apart here.
# Columns and labels:
# FKBP [1] = target: T1, FKBP (Homo sapiens, UniProt P62942); experiment: binding affinity by fluorescence titrations; design: made in house
# [2] = target: T2, catalytic domain of stromelysin (Homo sapiens, UniProt P08254); experiment: two-dimensional 15N/1H NMR correlation titration, dissociation constant; assay type: binding
# T2 construct: expression construct coding for amino acid residues 81-256 plus an initiating methionine; initiating methionine (N); made in house; host or cells: E. coli BL21(DE3)/pLysS, pET3d
# Description: Binding or dissociation constants are measured by following the ^15N/^1H chemical shifts of the protein as a function of ligand concentration. A known concentration ([P]o) of the target molecule is mixed with a known concentration ([L]0) of a previously identified ligand and the two-dimensional ^15N/^1H correlation spectrum was acquired. From this spectrum, observed chemical shift values (δobs) are obtained. The process is repeated for varying concentrations of the ligand to the point of saturation of the target molecule, when possible, in which case the limiting chemical shift value for saturation (δsat) is measured.
# In those situations where saturation of the target molecule is achieved, the dissociation constant for the binding of a particular ligand to the target molecule is calculated using the formula: KD = (([P]0−x)([L]0−x))/(x) [formula] where [P]0 is the total molar concentration of target molecule; [L]0 is the total molar concentration of ligand; and x is the molar concentration of the bound species. The value of x is determined from the equation: x = (δobs −δfree)/(Δ) [formula] where δfree is the chemical shift of the free species; δobs is the observed chemical shift; and Δ is the difference between the limiting chemical shift value for saturation (δsat) and the chemical shift value of the target molecule free of ligand (δfree).
# The dissociation constant is then determined by varying its value until a best fitto the observed data is obtained using standard curve-fitting statistical methods. In the case where δsat is not directly known, both KD and δsat are varied and subjected to the same curve-fitting procedure.
# The catalytic domain of stromelysin was prepared in accordance with the procedures of Example 1. The protein solutions used in the screening assay contained the uniformly ^15N-labeled catalytic domain of stromelysin (0.3 mM), acetohydroxamic acid (500 mM), CaCl2 (20 mM), and sodium azide (0.5%) in a H2O/D2O (9/1) TRIS buffered solution (50 mM, pH=7.0).
# Two-dimensional ^15N/^1H NMR spectra were generated at 29°C on a Bruker AMX500 NMR spectrometer equipped with a triple resonance probe and Bruker sample changer. The ^15N/^1H HSQC spectra were acquired as 80 x 1024 complex points using sweep widths of 2000 Hz (^15N, t^1) and 8333 Hz (^1H, t2). A delay of 1 second between scans and 8 scans perfree induction decay(fid) were employed in the data collection. All NMR spectra were processed and analyzed on Silicon Graphics computers using in-house-written software.
# A first two-dimensional ^15N/^1 H NMR correlation spectrum was acquired for the ^15N-labeled stromelysin target molecule as described above. The stromelysin target was then exposed to a database of test compounds. Stock solutions of the compounds were made at 100 mM and 1 M. In addition, a combination library was prepared that contained 8-10 compounds per sample at a concentration of 100 mM for each compound.
# The NMR samples were prepared by adding 4 µl of the DMSO stock solution of the compound mixtures that contained each compound at a concentration of 100 mM to 0.4 ml H2O/D2O (9/1) buffered solution of the uniformly ^15N-labeled protein. The final concentration of each of the compounds in the NMR sample was about 1 mM.
# Various biaryl compounds of structure I were tested for binding to stromelysin at differing concentrations. The ^15N/^1H spectra generated at each concentration were evaluated to quantify differences in the spectra as a function of compound concentration. A binding or dissociation constant (KD)was calculated, using standard procedures well known in the art, from those differences. The values for R1-R3 and A1-A3 in Table 1 refer to the corresponding positions in the structure I, above.
# All NMR measurements were performed in the presence of 500 mM acetohydroxamic acid, except for the titration of acetohydroxamic acid itself. Dissociation constants were obtained from the dependence of the observed chemical shift changes upon added ligand. […]
# [3] = target: T2, catalytic domain of stromelysin; experiment: enzymatic assay, cleavage of a fluorogenic substrate; assay type: biochemical
# Description: In a first study, binding constants were determined, both by the NMR method of the present invention, and by a prior art enzymatic assay. The target molecule was the catalytic domain of stromelysin prepared in accordance with the procedures of Example 1. […] The KD values so obtained were compared to an inhibition constant KI as determined in an enzymatic assay.
# The enzymatic assay measured the rate of cleavage of a fluorogenic substrate by following the fluorescence increase upon peptide cleavage which causes a separation between the fluorophore and quencher. Enzymatic activity was measured using a matrix of different concentrations of acetohydroxamic acid and biaryl compounds. The assay is a modification of the method described by H. Weingarten, et al. in Anal. Biochem., 147: 437-440 (1985) employing the fluorogenic substrate properties described by E. Matayoshi, et al. in Science: 247: 954-958 (1990).
# Eight acetohydroxamic acid concentrations were used ranging from 0.0 to 1.0 M, and six compound concentrations were used, resulting in a total of 48 points. Individual compound concentration varied due to solubility and potency.
# All NMR measurements were performed in the presence of 500 mM acetohydroxamic acid, except for the titration of acetohydroxamic acid itself. Dissociation constants were obtained from the dependence of the observed chemical shift changes upon added ligand. Inhibition constants were then obtained from the inhibition data using standard procedures.
# water solubility = assay type: physicochemical
# Stromelysin [4] = target: T3, Stromelysin (Homo sapiens, UniProt P08254); experiment: inhibition of stromelysin degradation (autolysis); assay type: biochemical; conditions: at a concentration of 500 mM
# T3 construct: expression construct coding for amino acid residues 81-256 plus an initiating methionine; initiating methionine (N); made in house; host or cells: E. coli BL21(DE3)/pLysS, pET3d
# Description: Studies were performed to design new ligands that bound to the catalytic domain of stromelysin. Because stromelysin undergoes autolysis, an inhibitor was sought to block the degradation of stromelysin. That inhibitor would facilitate the screening of other potential ligands that bind to other sites on the enzyme.
# A variety of hydroxamic acids of the general formula R-(CO)NHOH were screened for binding to stromelysin using the procedures set forth in Example 2.
# [5] = target: T4, DNA-binding domain of the E2 protein (Human papillomavirus 31, UniProt P17383); experiment: two-dimensional 15N/1H NMR correlation titration, binding constants for two binding sites
# T4 construct: made in house; host or cells: bacteria, T7 expression system
# Description: Compounds from the database were screened in a similar manner for binding to the DNA-binding domain of the E2 protein. Those compounds had the structure II below, where R1-R4 and A are defined in Table 2. [drawing 5]
# NMR experiments were performed at 29°C on a Bruker AMX500 NMR spectrometer equipped with a triple resonance probe and Bruker sample changer. The ^15N-/^1H HSQC spectra were acquired as 80 x 1024 complex points using sweep widths of 2000 Hz (^15N,t1) and 8333 Hz (^1H, t2). A delay of 1 second between scans and 4 scans per free induction decay were employed in the data collection. All NMR spectra were processed and analyzed on Silicon Graphics computers.
# By monitoring the chemical shift changes as a function of ligand concentration, binding constants for the two binding sites were also measured. Table 2 […]
# Stromelysin [6] = target: T3, Stromelysin; experiment: stromelysin inhibition by linked hydroxamate-biaryl compounds; assay type: biochemical; conditions: for IC50: Table 4, kind of constant not given
# FKBP [7] = target: T1, FKBP; experiment: two-dimensional 15N/1H NMR correlation titration, dissociation constant; assay type: binding; design: made in house; host or cells: recombinant
# Description: The second step in the design process was the identification of a second ligand that bound to the target FKBP at a site different from the binding site of compound 29. This was accomplished by screening compounds for their ability to bind to FKBP in the presence of saturating amounts of the ascomycin fragment analog (compound 29). Details of procedures for this second identification step are as set forth in example 2.
# In the second round of screening, binding was assayed both in the presence and in the absence of saturating amount of compound 29 (1 mM).
# Various benzanilide compounds were tested for binding to FKBP at multiple ligand concentrations. The ^15N/^1H correlation spectra generated at each concentration were evaluated to quantify differences in the spectra as a function of compound concentration. A binding or dissociation constant (Kd) was calculated, using standard procedures well known in the art, from those differences. The values for R1-R4 in Table 5 refer to the corresponding positions in the structure III, above.
# [8] = Table 1, biaryl compounds of structure I, differing concentrations, read-out: KD
# [9] = Table 3, in the presence of 500 mM acetohydroxamic acid, read-out: NMR KD
# [10] = fluorogenic substrate, matrix of acetohydroxamic acid and compound concentrations, read-out: Assay KI
# [11] = amides of the DNA-binding site, read-out: DNA KD
# [12] = amides of the β-barrel site, read-out: β-barrel KD
# T2 sequence (P08254 98-273): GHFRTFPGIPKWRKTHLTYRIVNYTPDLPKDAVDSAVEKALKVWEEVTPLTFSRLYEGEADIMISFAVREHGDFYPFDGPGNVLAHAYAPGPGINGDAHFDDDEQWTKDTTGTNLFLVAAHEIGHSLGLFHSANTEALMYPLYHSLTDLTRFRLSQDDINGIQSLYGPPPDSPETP
# T3 sequence (P08254 98-273): as above
# T1 sequence (P62942 whole entry, the tested form may be a part): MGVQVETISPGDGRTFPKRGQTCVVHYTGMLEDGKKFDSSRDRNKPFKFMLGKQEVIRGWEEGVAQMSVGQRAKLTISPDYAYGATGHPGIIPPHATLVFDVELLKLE
# T4 sequence (P17383 292-372): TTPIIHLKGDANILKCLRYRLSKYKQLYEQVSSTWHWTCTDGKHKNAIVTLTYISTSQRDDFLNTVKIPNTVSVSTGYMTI
compound,measurement,setting,value
COc1cc(C(=O)C(=O)N2CCCC[C@H]2C(=O)OCCCOc2ccc(C(=O)Nc3ccc(O)cc3)cc2)cc(OC)c1OC,Kd,FKBP [1],0.019 µM
same,increase in potency over the ascomycin-fragment analog (compound 29) alone,FKBP [1],100 fold
"CC(=O)NO [Acetohydroxamic acid, acetohydroxamic acid, reference compound]",Kd,"[2]; NMR screening of hydroxamic acids, read-out: binding affinity for stromelysin",17000 µM
same,Kd,"[2]; Table 3, titration of acetohydroxamic acid itself, read-out: NMR KD",17000 µM
same,Ki,[3],21100 µM
same,water solubility,water solubility,good water solubility
same,degradation of the enzyme,Stromelysin [4],inhibited the degradation of the enzyme
Oc1cccc(-c2ccccc2)c1 [Compound 1],Kd,[2],1100 µM
OCc1ccc(-c2ccccc2)cc1 [Compound 2],Kd,[2]; [8],3200 µM
Oc1ccc(-c2ccc(Br)cc2)cc1 [Compound 3],Kd,[2]; [8],1300 µM
c1ccc(-c2ccncn2)cc1 [Compound 4],Kd,[2]; [8],1600 µM
same,Kd,[2]; [9],1600 µM
same,Ki,[3]; [10],7400 µM
O=Cc1ccc(-c2ccccc2)cc1 [Compound 5],Kd,[2],1700 µM
COc1ccc(-c2ccccc2)cc1N [Compound 6],Kd,[2]; [8],400 µM
c1ccc(-c2ccncc2)cc1 [Compound 7],Kd,[2]; read-out: KD,200 µM
same,Kd,[2]; read-out: NMR KD,170 µM
same,Ki,[3]; read-out: Assay KI,320 µM
CC(=O)Oc1ccc(-c2ccccc2)cc1 [Compound 8],Kd,[2]; [8],300 µM
Oc1ccc(-c2ccc(O)cc2)cc1 [Compound 9],Kd,[2]; [8],10 µM
same,Kd,[2]; [9],160 µM
same,Ki,[3]; [10],700 µM
c1cc(-c2ccncc2)ccn1 [Compound 10],Kd,[2],400 µM
same,Kd,"[2]; read-out: NMR KD, Table 3, in the presence of 500 mM acetohydroxamic acid",400 µM
same,Ki,[3],1800 µM
Oc1ccc(-c2ccccc2)cc1 [Compound 11],Kd,[2],300 µM
N#Cc1ccc(-c2ccc(O)cc2)cc1 [Compound 12],Kd,[2]; [8],10 µM
same,Kd,[2]; [9],20 µM
same,Ki,[3]; [10],110 µM
O=C(c1ccccc1)c1cccc(O)c1 [Compound 13],Kd,[5]; [11],> 50000 µM
same,Kd,[5]; [12],600 µM
OCc1cccc(Oc2ccccc2)c1 [Compound 14],Kd,[5]; [11],> 50000 µM
same,Kd,[5]; [12],2000 µM
O=C(O)c1ccc(-c2ccccc2)cc1 [Compound 15],Kd,[5]; [11],2000 µM
same,Kd,[5]; [12],> 50000 µM
O=C(O)c1ccc(-c2cc(Cl)cc(Cl)c2)cc1 [Compound 16],Kd,[5]; [11],100 µM
same,Kd,[5]; [12],> 50000 µM
O=C(O)Cc1ccc(-c2ccccc2)cc1 [Compound 17],Kd,[5]; [11],4200 µM
same,Kd,[5]; [12],4900 µM
O=C(O)C=Cc1ccc(-c2ccccc2)cc1 [Compound 18],Kd,[5]; [11],1200 µM
same,Kd,[5]; [12],6200 µM
CC(CCc1ccc(Oc2ccccc2)cc1)CC(=O)O (centres unmarked) [Compound 19],Kd,[5]; [11],500 µM
same,Kd,[5]; [12],200 µM
O=C(O)CCC(=O)c1ccc(Oc2ccccc2)cc1 [Compound 20],Kd,[5]; [11],2700 µM
same,Kd,[5]; [12],4800 µM
O=C(CCOc1ccc(-c2ccccc2)cc1)NO [Compound 21],IC50,Stromelysin [6],0.31 µM
O=C(CCCOc1ccc(-c2ccccc2)cc1)NO [Compound 22],IC50,Stromelysin [6],110 µM
O=C(CCCCOc1ccc(-c2ccccc2)cc1)NO [Compound 23],inhibition at 100 µM,Stromelysin [6],38%
O=C(CCCCCOc1ccc(-c2ccccc2)cc1)NO [Compound 24],inhibition at 100 µM,Stromelysin [6],43%
N#Cc1ccc(-c2ccc(OCCC(=O)NO)cc2)cc1 [Compound 25],IC50,Stromelysin [6],0.025 µM
N#Cc1ccc(-c2ccc(OCCCC(=O)NO)cc2)cc1 [Compound 26],IC50,Stromelysin [6],3.4 µM
N#Cc1ccc(-c2ccc(OCCCCC(=O)NO)cc2)cc1 [Compound 27],IC50,Stromelysin [6],3.5 µM
N#Cc1ccc(-c2ccc(OCCCCCC(=O)NO)cc2)cc1 [Compound 28],IC50,Stromelysin [6],1.7 µM
COC(=O)[C@@H]1CCCCN1C(=O)C(=O)c1cc(OC)c(OC)c(OC)c1 [Compound 29],Kd,FKBP [1],2 µM
same,occupancy of the binding site,FKBP [7]; ligand concentrations of 1 mM,> 98%
O=C(Nc1ccc(O)cc1)c1ccccc1O [Compound 30],Kd,FKBP [7],800 µM
O=C(Nc1ccccc1)c1ccc(O)cc1 [Compound 32],Kd,FKBP [7],500 µM
O=C(Nc1ccc(O)cc1)c1ccc(O)cc1 [Compound 33],Kd,FKBP [7],100 µM
O=C(Nc1ccc(O)cc1)c1ccccc1 [Compound 34],Kd,FKBP [7],600 µM
Cc1cc(C(=O)Nc2ccc(O)cc2)ccc1O [Compound 35],Kd,FKBP [7],500 µM
O=C(Nc1ccccc1)c1ccccc1 [Compound 36],Kd,FKBP [7],> 5000 µM
O=C(Nc1ccccc1)c1ccccc1O [Compound 37],Kd,FKBP [7],> 5000 µM

# Reference: patent EP0870197B2, “USE OF NUCLEAR MAGNETIC RESONANCE TO DESIGN LIGANDS TO TARGET BIOMOLECULES” (priority 1995, dated 1997)
